Measured values published in patent US11161854B2, “Indazolyl-spiro[2.2]pentane-carbonitrile derivatives as LRRK2 inhibitors, pharmaceutical compositions, and uses thereof” (Merck Sharp & Dohme Corp., priority 2017, dated 2021).

Target: GST-tagged truncated human mutant G2019S LRRK2 (Homo sapiens (Human), UniProt Q5S007, G2019S)
Assay: LRRK2 G2019S Km ATP LanthaScreen Assay
Type: biochemical
Conditions: 134 μM ATP (Km ATP); fluorescein-labeled LRRKtide substrate; mean IC50 values
Method: The IC50 values reported herein were measured as follows.
Biological Assay: LRRK2 Km ATP LanthaScreen™ Assay
The data presented for the Km ATP LanthaScreen™ Assay represents mean IC50 values based on several test results and may have reasonable deviations depending on the specific conditions and reagents used. Assays were performed in the presence of 134 μM ATP (Km ATP). Upon completion, the assay was stopped and phosphorylated substrate detected with a terbium (Tb)-labeled anti-pERM antibody (cat. no. PV4898). The compound dose response was prepared by diluting a 10 mM stock of compound to a maximum concentration of […] in 100% dimethylsulfoxide followed by custom fold serial dilution in dimethylsulfoxide nine times. Twenty nanoliters of each dilution was spotted via a Labcyte Echo onto a 384-well black-sided plate (Corning 3575) followed by 15 μl of a 1.25 nM enzyme solution in 1× assay buffer (50 mM Tris pH 8.5, 10 mM MgCl2, 0.01% Brij-35, 1 mM EGTA, 2 mM dithiothreitol, 0.05 mM sodium orthovanadate). Following a 15-minute incubation at room temperature, the kinase reaction was started with the addition of 5 μl of 400 nM fluorescein-labeled LRRKtide peptide substrate and 134 μM ATP solution in 1× assay buffer. The reaction was allowed to progress at ambient temperature for 90 minutes. The reaction was then stopped by the addition of 20 μl of TR-FRET Dilution Buffer (Life Technologies, Carlsbad, Calif.) containing 2 nM Tb-labeled anti-phospho LRRKtide antibody and 10 mM EDTA (Life Technologies, Carlsbad, Calif.). After an incubation of 1 hour at room temperature, the plate was read on an EnVision multimode plate reader (Perkin Elmer, Waltham, Mass.) with an excitation wavelength of 337 nm (Laser) and a reading emission at both 520 and 495 nm. […] Abase uses a 4 parameter (4P) logistic fit based on the Levenberg-Marquardt algorithm.

Chain of GST-tagged truncated human mutant G2019S LRRK2 (Q5S007 970-2527 G2019S): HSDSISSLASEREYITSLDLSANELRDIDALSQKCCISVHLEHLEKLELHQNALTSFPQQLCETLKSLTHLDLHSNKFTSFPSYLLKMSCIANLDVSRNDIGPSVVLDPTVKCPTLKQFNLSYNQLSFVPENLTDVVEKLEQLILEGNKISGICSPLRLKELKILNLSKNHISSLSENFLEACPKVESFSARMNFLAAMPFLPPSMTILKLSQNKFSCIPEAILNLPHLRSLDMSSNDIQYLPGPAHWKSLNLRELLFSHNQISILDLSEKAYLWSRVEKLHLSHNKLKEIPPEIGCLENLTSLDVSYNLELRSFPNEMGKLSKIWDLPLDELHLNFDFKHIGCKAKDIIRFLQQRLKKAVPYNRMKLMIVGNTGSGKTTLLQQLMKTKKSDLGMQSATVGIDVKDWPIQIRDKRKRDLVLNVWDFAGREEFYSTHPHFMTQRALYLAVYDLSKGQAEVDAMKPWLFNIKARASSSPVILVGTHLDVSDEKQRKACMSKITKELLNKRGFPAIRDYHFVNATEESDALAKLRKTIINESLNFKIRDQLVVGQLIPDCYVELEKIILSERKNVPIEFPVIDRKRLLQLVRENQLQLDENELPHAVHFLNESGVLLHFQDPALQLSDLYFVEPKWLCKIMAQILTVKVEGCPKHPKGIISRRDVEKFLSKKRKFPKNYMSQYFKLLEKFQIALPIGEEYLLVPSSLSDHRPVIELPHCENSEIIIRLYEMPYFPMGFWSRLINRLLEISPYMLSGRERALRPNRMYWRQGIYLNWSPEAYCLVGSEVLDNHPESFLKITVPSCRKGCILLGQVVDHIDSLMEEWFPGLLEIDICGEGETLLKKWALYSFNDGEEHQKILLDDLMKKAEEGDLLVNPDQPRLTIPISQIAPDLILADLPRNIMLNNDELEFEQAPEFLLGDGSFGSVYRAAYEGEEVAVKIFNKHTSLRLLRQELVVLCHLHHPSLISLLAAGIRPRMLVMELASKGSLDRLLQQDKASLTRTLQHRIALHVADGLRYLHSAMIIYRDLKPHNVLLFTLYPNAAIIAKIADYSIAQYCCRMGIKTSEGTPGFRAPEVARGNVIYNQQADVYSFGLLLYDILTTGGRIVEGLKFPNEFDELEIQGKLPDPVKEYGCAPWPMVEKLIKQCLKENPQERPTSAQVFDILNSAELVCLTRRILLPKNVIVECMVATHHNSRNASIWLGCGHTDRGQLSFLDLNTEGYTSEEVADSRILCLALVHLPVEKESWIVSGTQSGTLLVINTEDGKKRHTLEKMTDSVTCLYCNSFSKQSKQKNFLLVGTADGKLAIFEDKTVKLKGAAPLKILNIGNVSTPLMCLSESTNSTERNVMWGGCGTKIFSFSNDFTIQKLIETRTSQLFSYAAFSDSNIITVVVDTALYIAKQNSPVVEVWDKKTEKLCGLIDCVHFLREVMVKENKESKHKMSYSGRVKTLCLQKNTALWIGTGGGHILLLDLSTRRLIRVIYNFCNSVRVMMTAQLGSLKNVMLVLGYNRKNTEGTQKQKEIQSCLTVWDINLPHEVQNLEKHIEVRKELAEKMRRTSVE

SMILES | IC50
Cc1nc(N2CC3(CN(CC(F)(F)F)C3)C2)cc(-n2ncc3cnc(C4(C#N)CC45CC5)cc32)n1 (single isomer, unassigned) [Example 12.1, (S or R)-1-(1-(2-methyl-6-(6-(2,2,2-trifluoroethyl)-2,6-diazaspiro[3.3]heptan-2-yl)pyrimidin-4-yl)-1H-pyrazolo[4,3-c]pyridin-6-yl)spiro[2.2]pentane-1-carbonitrile] | 2.1 nM
N#C[C@@]1(c2ccc3cnn(-c4cc(N5CCOC(CO)C5)ncn4)c3c2)CC12CC2 (stereo in doubt) [Example 4.9-1, 1-(1-(6-(2-(hydroxymethyl)morpholino)pyrimidin-4-yl)-1H-indazol-6-yl)spiro[2.2]pentane-1-carbonitrile] | 0.6 nM
CC(C)(O)[C@@H]1CCN(c2cc(-n3ncc4ccc([C@]5(C#N)CC56CC6)cc43)ncn2)C1 [Example 1.4-2, (S)-1-(1-(6-((R)-3-(2-hydroxypropan-2-yl)pyrrolidin-1-yl)pyrimidin-4-yl)-1H-indazol-6-yl)spiro[2.2]pentane-1-carbonitrile] | 0.9 nM
N#CC1(c2ccc3cnn(-c4cc(N5CC6(CCOC6)C5)ncn4)c3c2)CC12CC2 (stereo not shown) [Example 1.5] | 0.9 nM
CNc1nc(N2CC[C@@H](C(C)(C)O)C2)cc(-n2ncc3ccc(C4(C#N)CC45CC5)cc32)n1 (stereo partly drawn) [Example 2.6-1, 1-(1-(6-((R)-3-(2-hydroxypropan-2-yl)pyrrolidin-1-yl)-2-(methylamino)pyrimidin-4-yl)-1H-indazol-6-yl)spiro[1.2.2]pentane-1-carbonitrile] | 0.8 nM
C[C@@H]1CN(c2cc(-n3ncc4ccc([C@]5(C#N)CC56CC6)cc43)ncn2)CCN1C1COC1 [Example 3.1-2] | 0.6 nM
C[C@@H]1CN(c2cc(-n3ncc4ccc([C@]5(C#N)CC56CC6)cc43)ncn2)C[C@H](C)[C@]1(C)O [Example 3.2] | 1.1 nM
COCc1nc(N2C[C@@H](C)[C@@](C)(O)[C@@H](C)C2)cc(-n2ncc3ccc([C@]4(C#N)CC45CC5)cc32)n1 [Example 3.3] | 1 nM
COc1nc(N2C[C@@H](C)[C@@](C)(O)[C@@H](C)C2)cc(-n2ncc3ccc([C@]4(C#N)CC45CC5)cc32)n1 [Example 3.4] | 1.5 nM
C[C@H]1CN(c2cc(-n3ncc4ccc([C@]5(C#N)CC56CC6)cc43)ncn2)CCN1C1CCOC1 (stereo partly shown) [Example 3.8-4] | 0.6 nM
CC1(O)CC2(CN(c3cc(-n4ncc5ccc([C@@]6(C#N)CC67CC7)cc54)ncn3)C2)C1 [Example 3.9-1] | 2.5 nM
CC1(O)CC2(CN(c3cc(-n4ncc5ccc([C@]6(C#N)CC67CC7)cc54)ncn3)C2)C1 [Example 3.9-2] | 1.5 nM
C[C@@H]1CN(c2cc(-n3ncc4ccc([C@]5(C#N)CC56CC6)cc43)ncn2)C[C@H](C)N1C1COC1 [Example 4.1] | 0.6 nM
CC1(O)CN(c2cc(-n3ncc4ccc([C@]5(C#N)CC56CC6)cc43)ncn2)C1 [Example 4.2] | 1.3 nM
CC(C)(O)C1CN(c2cc(-n3ncc4ccc([C@]5(C#N)CC56CC6)cc43)ncn2)C1 [Example 4.4] | 0.6 nM
COCc1nc(N2CC(OC)C2)cc(-n2ncc3ccc([C@]4(C#N)CC45CC5)cc32)n1 [Example 4.5] | 2.6 nM
COCc1nc(N2C[C@@H](C)N(C3COC3)[C@@H](C)C2)cc(-n2ncc3ccc([C@]4(C#N)CC45CC5)cc32)n1 [Example 4.6] | 0.9 nM
CS(=O)(=O)N1CCN(c2cc(-n3ncc4ccc([C@]5(C#N)CC56CC6)cc43)ncn2)CC1 [Example 4.7] | 1.3 nM
C[C@H]1CN(c2cc(-n3ncc4ccc([C@]5(C#N)CC56CC6)cc43)ncn2)CCN1S(C)(=O)=O [Example 4.8] | 1.2 nM
COCc1nc(N2C[C@@H](C)[C@@](C)(O)[C@@H](C)C2)cc(-n2ncc3ccc([C@]4(C#N)CC45CC5)cc32)n1 [Example 4.10] | 0.6 nM
COCc1nc(N2CCN(C3COC3)[C@H](C)C2)cc(-n2ncc3ccc([C@]4(C#N)CC45CC5)cc32)n1 [Example 4.11-1] | 1.3 nM
COCc1nc(N2CCN(C3COC3)[C@@H](C)C2)cc(-n2ncc3ccc([C@]4(C#N)CC45CC5)cc32)n1 [Example 4.11-2] | 0.7 nM

SMILES | IC50
CC(C)(O)[C@H]1CN(c2cc(-n3ncc4ccc([C@]5(C#N)CC56CC6)cc43)ncn2)C[C@H]1F [Example 4.12-1] | 1.2 nM
CC(C)(O)[C@@H]1CN(c2cc(-n3ncc4ccc([C@]5(C#N)CC56CC6)cc43)ncn2)C[C@@H]1F [Example 4.12-2] | 0.6 nM
CN1CCOC2(C1)CN(c1cc(-n3ncc4ccc([C@]5(C#N)CC56CC6)cc43)ncn1)C2 [Example 4.13] | 0.6 nM
CS(=O)(=O)N1CCN(c2cc(-n3ncc4ccc([C@]5(C#N)CC56CC6)cc43)ccn2)CC1 [Example 4.14] | 2.8 nM
Cc1nc(N2CC3(C(C)(C)O)CC2C3)cc(-n2ncc3c(F)cc(C4(C#N)CC45CC5)cc32)n1 (stereo not shown) [Example 4.16] | 0.6 nM
Cc1nc(N2CCN3CCOC[C@@H]3C2)cc(-n2ncc3ccc([C@]4(C#N)CC45CC5)cc32)n1 [Example 4.17] | 0.6 nM
N#C[C@@]1(c2ccc3cnn(-c4cc(C5CCN(C6COC6)CC5)ncn4)c3c2)CC12CC2 [Example 4.18] | 18.7 nM
Cc1cc(-n2ncc3ccc([C@]4(C#N)CC45CC5)cc32)nc(N)n1 [Example 4.19] | 0.6 nM
N#C[C@@]1(c2ccc3cnn(-c4cc(C5CC5)ncn4)c3c2)CC12CC2 [Example 4.21] | 6.5 nM
Cc1cc(-n2ncc3ccc([C@]4(C#N)CC45CC5)cc32)nc(C2CC2)n1 [Example 4.23] | 3.2 nM
COCc1nc(C)cc(-n2ncc3ccc([C@]4(C#N)CC45CC5)cc32)n1 [Example 4.24] | 10.3 nM
CNc1nc(C)cc(-n2ncc3ccc([C@]4(C#N)CC45CC5)cc32)n1 [Example 4.25] | 3.5 nM
CCc1cc(-n2ncc3ccc([C@]4(C#N)CC45CC5)cc32)nc(C)n1 [Example 4.26] | 3.1 nM
CCc1nc(C)cc(-n2ncc3ccc([C@]4(C#N)CC45CC5)cc32)n1 [Example 4.27] | 3.2 nM
CC(C)(O)C12CC(C1)N(c1cc(-n3ncc4ccc([C@@]5(C#N)CC56CC6)cc43)ccn1)C2 [Example 6.1-2] | 5.3 nM
CC(C)(O)[C@@H]1CCN(c2cc(-n3ncc4ccc([C@@]5(C#N)CC56CC6)cc43)ccn2)C1 [Example 6.2-1] | 1.8 nM
CC(C)(O)[C@@H]1CCN(c2cc(-n3ncc4ccc([C@]5(C#N)CC56CC6)cc43)ccn2)C1 [Example 6.2-2] | 0.9 nM
CC(C)(O)C12CC(C1)N(c1cc(-n3ncc4ccc([C@]5(C#N)CC56CC6)cc43)cc(F)n1)C2 [Example 6.3] | 15 nM
C[C@H]1CN(c2cc(-n3ncc4ccc([C@]5(C#N)CC56CC6)cc43)cc(F)n2)CCN1C1COC1 [Example 6.4] | 6.8 nM
C[C@H]1CN(c2cc(-n3ncc4ccc([C@]5(C#N)CC56CC6)cc43)ccn2)CCN1S(C)(=O)=O [Example 6.5] | 1.5 nM
CC(C)(O)C12CC(C1)N(c1cc(-n3ncc4ccc([C@]5(C#N)CC56CC6)cc43)nc(N3CCC3)n1)C2 [Example 8.5, (S)-1-(1-(2-(azetidin-1-yl)-6-(4-(2-hydroxypropan-2-yl)-2-azabicyclo[2.1.1]hexan-2-yl)pyrimidin-4-yl)-1H-indazol-6-yl)spiro[2.2]pentane-1-carbonitrile] | 9.8 nM
